Entries after “also recorded” stand apart in the source; their conditions may differ.
Assays:
[1] = system: Eμ-Myc-gapdh^low lymphoma; test: Animal study: lymphoma transfer of Eμ-Myc-gapdh^low cells into syngeneic C57BL/6 mice; assay type: in vivo, mouse; conditions: Eμ-Myc-gapdh^low-bearing mice; 200 mg/kg/day phenformin in drinking water for 12 days; FIG. 5
Protocol: Lymphoma transfer of a isolated Eμ-Myc clone was realized into syngeneic, nontransgenic, 6-week-old C57BL/6 females by tail vein injection of 0.1×10^6 viable Eμ-Myc lymphoma cells per recipient mouse (in 150 μL of sterile PBS). Phenformin treated group received 200 mg/kg/day phenformin in the drinking water for 12 days. Phenformin powder was dissolved every two days in the drinking water, taking into account the mouse body weight and the volume of water consumed each day. Untreated mice (controls) received water (n=10 mice/group). Food was given ad libitum. The first signs of the pathology were determined by inguinal lymph node palpation and analyses of blood sample with Hemavet 950FS (Drew Scientific, INC, France). Progression-free survival was determined by the time between the iv injection of the cell and the appearance of enlarged lympho nodes. Lymphoma-bearing animals were killed by cervical dislocation as soon as they presented signs of illness. Upon sacrifice all lymph node tumors and spleen are immediately collected and weighted. All mice were maintained in specific pathogen-free conditions and experimental procedures were approved by the Institutional Animal Care and Use Committee and by the regional ethics committee (PEA232 from Comité Institutionnel d'Ethique Pour l'Animal de Laboratoire—AZUR).

[2] = system: Eμ-Myc cells (mouse primary B lymphoma cells), gapdh^low vs gapdh^high; test: Proliferation assay (proliferation index, DAPI exclusion); assay type: cell-based; conditions: phenformin 50 μM, 24 and 48 hours
Protocol: Mouse primary Eμ-Myc clones (B lymphoma cells) obtained from lymphomas of different C57BL/6 Eμ-Myc transgenic mice were isolated as described previously (Lindemann et al., 2007) and maintained in DMEM supplemented with 10% FCS, 2-mercaptoethanol (50 μM), L-asparagin (0.37 mM) and HEPES (pH 7.4, 10 mM). C57BL/6 Eμ-Myc transgenic mice were purchased from the Jackson Laborator.
Eμ-Myc cells (0.2×10^6) were seeded in 96 well-plates in the presence or absence of 50 μM of Phenformin for 0, 24 and 48 hours. Number of living and dead cells was counted using DAPI staining exclusion by flow cytometry (MACSQuant Analyser, Miltenyi Biotec). Proliferation index were calculated by dividing the number of living cells obtained for each day by the one obtained the day of seeding (day 0).

[3] = system: Eμ-Myc cells (mouse primary B lymphoma cells), gapdh^low vs gapdh^high; test: Cell death assay (DAPI staining, flow cytometry); assay type: cell-based
Protocol: C57BL/6 Eμ-Myc transgenic mice were purchased from the Jackson Laborator.
Eμ-Myc cells (0.2×10^6) were seeded in 96 well-plates in the presence or absence of 200 μM of phenformin (Sigma) for 24 hours and 48 hours. Cells were then labeled with DAPI (Molecular Probes; 0.5 μg/mL) and analyzed immediately by flow cytometry using a MACSQuant Analyzer (Miltenyi Biotec).

Row | Compound | B lymphoma progression (progression-free survival, size of axillary lymphomas and spleen) [1] | Sensitivity to phenformin (proliferation index) ([2]; Eμ-Myc-gapdh^high cells silenced for gapdh (shgapdh) vs control, FIG. 4B) | Sensitivity to phenformin (proliferation index) ([2]; Eμ-Myc-gapdh^low vs Eμ-Myc-gapdh^high clones, FIG. 3B) | Sensitivity to phenformin (cell death) ([3]; Eμ-Myc-gapdh^high cells silenced for gapdh (shgapdh) vs control, phenformin 100 μM, 24 and 48 hours, FIG. 4A) | Sensitivity to phenformin (cell death) ([3]; Eμ-Myc-gapdh^low vs Eμ-Myc-gapdh^high clones, phenformin 200 μM, 24 hours, FIG. 3A) | Sensitivity to L-asparaginase (cell death) ([3]; Eμ-Myc-gapdh^high cells silenced for gapdh (shgapdh) vs control, L-asparaginase 0.3 UI/ml, 24 hours, FIG. 4C) | Sensitivity to L-asparaginase (cell death) ([3]; Eμ-Myc-gapdh^low vs Eμ-Myc-gapdh^high clones, L-asp 0.3 UI/ml, 1.0 UI/ml, 24 hours, FIG. 3C)
1 | [H]/N=C(/N)N/C(=N/[H])NCCc1ccccc1 [phenformin] | reduced | more sensitive | more sensitive | more sensitive; also recorded: sensitizes | more sensitive |  | 
2 | L-asparaginase |  |  |  |  |  | more sensitive; also recorded: sensitizes | more sensitive

Source: US10947598B2, “Methods for determining the metabolic status of lymphomas” (INSERM (Institut National de la Sante et de la Recherche …, priority 2015, dated 2021)
